In the supplement of paper PMC11061612:

Key:
Assay in all cases: Bliss excess, mean over the matrix (fraction); higher = more synergy
[1] = tested on: COR-L23 (Non-Small Cell Lung Carcinoma)
Summary of the method: (§1)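 After 24 hours at 37°C and 5% CO2 in 1536-well plates, cells in DMEM/F12 or RPMI plus 10% FBS received two-drug dose matrices for 72 hours. Viability came from CellTiter-Glo 2.0 luminescence and was scaled as inhibition, anchored at 0 by vehicle wells and at 1 by blank wells. Combination Emax is taken as the second-highest inhibition in the matrix, and Bliss excess as the observed combination effect less EA + EB − EA·EB, with EA and EB the single-agent effects.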

[2] = tested on: CTV-1 (T-Lymphoblastic Leukemia)
Summary of the method: as §1

[3] = tested on: DMS-273 (Small Cell Lung Carcinoma)
Summary of the method: as §1

[4] = tested on: DOV13 (Ovarian Carcinoma)
Summary of the method: as §1

DSH1 (Bladder Carcinoma) = tested on: DSH1 (Bladder Carcinoma)
Summary of the method: as §1

[5] = tested on: HCC2157 (Breast Carcinoma)
Summary of the method: as §1

[6] = tested on: HT-29 (Colorectal Carcinoma)
Summary of the method: as §1

[7] = tested on: IHH-4 (Thyroid Gland Carcinoma)
Summary of the method: as §1

[8] = tested on: LS-513 (Colorectal Carcinoma)
Summary of the method: as §1

[9] = tested on: LU-99A (Non-Small Cell Lung Carcinoma)
Summary of the method: as §1

[10] = tested on: NCI-H1299 (Non-Small Cell Lung Carcinoma)
Summary of the method: as §1

[11] = tested on: NCI-H1781 (Lung Adenocarcinoma)
Summary of the method: as §1

NCI-H2595 (Mesothelioma) = tested on: NCI-H2595 (Mesothelioma)
Summary of the method: as §1

RH-1 (Ewing's Sarcoma) = tested on: RH-1 (Ewing's Sarcoma)
Summary of the method: as §1

SK-N-FI (Neuroblastoma) = tested on: SK-N-FI (Neuroblastoma)
Summary of the method: as §1

[12] = tested on: SUIT-2 (Pancreatic Carcinoma)
Summary of the method: as §1

[13] = tested on: SW1088 (Low Grade Glioma)
Summary of the method: as §1

[14] = tested on: SW756 (Cervical Carcinoma)
Summary of the method: as §1

[15] = tested on: TE-5 (Esophageal Squamous Cell Carcinoma)
Summary of the method: as §1

[16] = tested on: U-266 (Plasma Cell Myeloma)
Summary of the method: as §1

SMILES	Bliss excess [1]	Bliss excess [2]	Bliss excess [3]	Bliss excess [4]	Bliss excess (DSH1 (Bladder Carcinoma))	Bliss excess [5]	Bliss excess [6]	Bliss excess [7]	Bliss excess [8]	Bliss excess [9]	Bliss excess [10]	Bliss excess [11]	Bliss excess (NCI-H2595 (Mesothelioma))	Bliss excess (RH-1 (Ewing's Sarcoma))	Bliss excess (SK-N-FI (Neuroblastoma))	Bliss excess [12]	Bliss excess [13]	Bliss excess [14]	Bliss excess [15]	Bliss excess [16]
COc1cccc(OCCCN)c1-c1cc(Nc2cnc(C#N)cn2)n[nH]1 [Prexasertib] + Cc1cc2ncnn2cc1Nc1ncc2c(n1)n(C1CCOCC1)c(=O)n2C [AZD7648] (first compound max 1 µM, 7x7, partner max 10 µM)	0.0184	-0.0495	-0.0121	0.0069	-0.0289	-0.0315	-0.0377	-0.0109	-0.0509	-0.0343	-0.0577	0.0024	-0.0172	-0.0085	-0.0084	-0.0063	-0.0975	0.0098	0.0129	-0.0518
NC1(C(=O)N[C@@H](CCO)c2ccc(Cl)cc2)CCN(c2ncnc3[nH]ccc23)CC1 [Capivasertib] + CC(=O)c1c(C)c2cnc(Nc3ccc(N4CCNCC4)cn3)nc2n(C2CCCC2)c1=O [Palbociclib] (first compound max 10 µM, 7x7, partner max 10 µM)	-0.0252	0.0198	-0.0309	0.0055	-0.0395	-0.0052	0.0086	0.0815	-0.0138	-0.0189	0.0662	-0.0326	-0.0248	-0.0427	-0.0581	-0.0047	0.0361	-0.0499	0.0142	-0.0606
CCN(CCO)CCCOc1ccc2c(Nc3cc(CC(=O)Nc4cccc(F)c4)[nH]n3)ncnc2c1 [AZD2811] + C[C@@H]1COCCN1C2=NC(=NC(=C2)C3(CC3)[S@](=N)(=O)C)C4=C5C=CNC5=NC=C4 [AZD6738] (first compound max 1 µM, 7x7, partner max 10 µM)	-0.0192	0.0009	-0.0332	-0.0619	0.02	-0.0704	-0.0459	-0.0583	-0.0524	-0.0732	-0.0808	0.0216	-0.0491	-0.0414	-0.0625	-0.0307	-0.103	-0.0095	-0.0582	-0.0532
CN(CCO)CC[C@H](CSc1ccccc1)Nc1ccc(S(=O)(=O)NC(=O)c2ccc(N3CCC([C@@H](O)c4ccccc4-c4ccc(Cl)cc4)CC3)cc2)cc1S(=O)(=O)C(F)(F)F [AZD4320] + Cc1cc2ncnn2cc1Nc1ncc2c(n1)n(C1CCOCC1)c(=O)n2C [AZD7648] (first compound max 1 µM, 7x7, partner max 10 µM)	-0.0348	0.001	0.0127	-0.0588	-0.0266	0.0378	-0.0293	-0.0451	-0.0543	-0.0522	-0.0408	-0.0388	-0.0214	-0.0018	-0.0203	-0.0389	-0.0184	-0.051	-0.033	-0.0005
Cc1c2c(nn1C)CSCc1cc(n(C)n1)CSc1cc(c3ccccc3c1)OCCCc1c(C(=O)O)n(C)c3c-2c(Cl)ccc13 [AZD5991] + CCN(CCO)CCCOc1ccc2c(Nc3cc(CC(=O)Nc4cccc(F)c4)[nH]n3)ncnc2c1 [AZD2811] (first compound max 1 µM, 7x7, partner max 1 µM)	0.0013	0.0556	-0.0949	0.0169	0.0492	-0.0241	0.0498	0.0306	0.0137	0.0252	-0.0012	-0.0155	0.0141	-0.0457	0.0054	0.0126	-0.0485	0.0141	-0.0313	0.0482
C[C@@H](c1ccc2nccn2c1)n1nnc2ncc(-c3cnn(C)c3)nc21 [Savolitinib] + CC1(C)CCC(CN2CCN(c3ccc(C(=O)NS(=O)(=O)c4ccc(NCC5CCOCC5)c([N+](=O)[O-])c4)c(Oc4cnc5[nH]ccc5c4)c3)CC2)=C(c2ccc(Cl)cc2)C1 [Venetoclax] (first compound max 1 µM, 7x7, partner max 1 µM)	-0.0457	-0.0245	-0.0398	-0.0552	0	0.0068	-0.0358	-0.0399	-0.0599	-0.0746	-0.0418	-0.0702	0.006	-0.0321	-0.0537	-0.0737	-0.0115	-0.0923	-0.0557	-0.0118
